Measured values: patent publication US7070940B2, “Method for determining the ability of a compound to modify the interaction between parkin and the p38 protein” (Aventis Pharma S.A., priority 2002, dated 2006)

Tests used:
[1] = system: COS7 cells overexpressing p38; test: p38 perinuclear inclusions (aggresomes) by immunocytochemistry in COS7 cells; format: cell-based; conditions: 15 μg/ml overnight
Method: The cells (COS7, 2.5′ 104 and SH-SY5Y cells, 8′ 104) were transfected with the plasmids indicated (pcDNA3-myc-p38, 0.5 ·g; or pcDNA3-myc-p38 and pcDNA3-HA-Parkin, 0.25 ·g of each), and treated or not treated with: epoxomicin (Affiniti, 1 μM), nocodazole (Sigma, 15 μg/ml), cytochalasin D (Sigma, 200 nM) overnight. Forty-eight hours after transfection, the cells were fixed and subjected to standard immunocytochemistry procedures. The polyclonal primary antibodies used were: anti-p38 (M. Mirande, 1:20 000), anti-Parkin (Asp5, 1:400), anti-proteasome 20S (Affiniti, 1:2500), anti-Hsp70 (Stressgen, 1:2500), anti-ubiquitin (Dako, 1:100) and anti-actin (Sigma, 1:100). The monoclonal primary antibodies were: anti ·a-tubulin (clone DM 1A, Sigma, 1:1000), antivimentin (DAKO, clone V9, 1:100) and anti-myc (clone 9E10, Santa Cruz, 1:400). The secondary antibodies were: anti-mouse IgGs conjugated to the fluorochrome Alexa Fluor 488 (Interchim, 1:200) and anti-rabbit IgGs conjugated to the fluorochrome CY3 (Jackson ImmunoResearch, 1:500). The cells were analysed by confocal microscopy.
We analysed the nature and the composition of the p38 protein perinuclear inclusions formed when p38 is overexpressed in cells of the COS7 line. In particular, we wondered whether these inclusions could be of the aggresome type (Kopito et al., 2000). […]

interaction Parkin-p38 = test: Reverse two-hybrid screening assay in yeast (growth on 5-fluoroorotic acid); format: cell-based, Saccharomyces cerevisiae; conditions: internal control; agar medium with 0.35 g/l 5FOA, 30° C., 48 h and/or 72 h
Excerpt: The Saccharomyces cerevisiae strain used for the screening can be the L40 strain used to clone the p38 protein. However, this strain must contain the URA3 reporter gene in place of the HIS3 reporter gene under the control of a promoter containing a sequence to which the LexA protein attaches to induce transcription. This strain may also contain a disruption in the erg6 gene and/or genes such as pdr5 or pdr11, to increase cell permeability to the compounds tested during the screening (WO96/10082).
This strain is simultaneously transformed with the two plasmids encoding the p38 protein or parkin used in the previous two-hybrid test or else encoding homologous or truncated forms of these two proteins. The interaction between these proteins confers a Ura+phenotype on the doubly-transformed strain, by reconstituting a transcription factor capable of inducing transcription of the URA3 reporter gene. This Ura+ phenotype also makes it possible to use the sensitivity of the strain to 5-fluoorotic acid (5FOA) for reverse two-hybrid “positive” screening. […]
48 h and/or 72 h and they may be read by visual examination. […] The compounds which have made it possible to obtain such a response of strain growth restoration are identified as being positive and recorded in a database.

COC(=O)Nc1nc2ccc(C(=O)c3cccs3)cc2[nH]1 [nocodazole]
effect on p38 perinuclear aggregates [1]: dispersion of the perinuclear aggregates

O=c1cnn([C@@H]2O[C@H](CO)[C@@H](O)[C@H]2O)c(=O)[nH]1 [6-azauridine]
yeast strain growth in the presence of 5FOA (interaction Parkin-p38): restores strain growth
